Data: paper PMC12649549, “Sequence Permutation Generated Lysine and Tryptophan-Rich Antimicrobial Peptides with Enhanced Therapeutic Index” (Antibiotics, 2025)
Read-outs that look alike come from different tables or passages of the source.

What was measured:
[1] = system: Both Gram-positive and -negative bacteria; experiment: Geometric mean MIC, therapeutic index and fold changes of MIC, whole panel of strains; format: cell-based; conditions: for Therapeutic Index (TI) G−/+: HC10/GM, both Gram-positive and -negative bacteria; for weakening of antibacterial efficacy (MIC) / weakening of bactericidal efficacy (MIC): LYM broth; for weakening of bactericidal efficacy (MIC): 2.5 mM MgCl2; for folds higher MIC values than W5KA9W: in most bacteria strains
Experimental: In this study, we aimed to investigate the potential of W5K series peptides for therapeutic use. To evaluate their efficacy for antibacterial therapy, we used the Therapeutic Index (TI) as a measure of their cell selectivity. The TI was calculated as the ratio of the concentration causing 10% hemolysis of human red blood cells (HC10) to the geometric mean minimum inhibitory concentration (GM) of the peptides against both Gram-negative and Gram-positive bacteria. This parameter was used to quantitatively assess the balance between antibacterial potency and cytotoxicity among the W5K derivatives.
The antibacterial activities of the peptides in Müller-Hinton (MH) broth and modified LYM broth were determined using the standard broth microdilution method as per Clinical and Laboratory Standards Institute (CLSI) guidelines. The LYM broth was prepared with specific components and adjusted to different conditions, including varying concentrations of NaCl and MgCl2, and different pH levels. To prepare the LYM broth, 5.4 mM KCl, 5.6 mM Na2HPO4, 0.5 mM MgSO4, and 1.0 mM sodium citrate were added. Additionally, 0.4 mg of ZnCl2, 2.0 mg of FeCl3·6H2O, 0.1 mg of CuSO4·5H2O, 0.1 mg of MnSO4·H2O, 0.1 mg of Na2B4O7∙10H2O, 700 mg of amino acid mixtures without tryptophan (Takara Bio Inc., San Jose, CA, USA), and 20 mg of L-tryptophan were added per liter of medium. The pH was adjusted to 7.4, and a vitamin mixture (100X, Sigma) and glucose concentration of 2% were added. For different conditions of LYM broth, NaCl concentrations of 300, 200, 150, and 50 mM, MgCl2 concentrations of 2.5, 1.5, and 0.5 mM, and pH levels of 6.5, 5.5, and 4.5 were adjusted. Bacterial strains were incubated in MH broth overnight, regrown, and diluted to a final concentration of 5 × 10^5 CFU/mL. Peptides were added to each well at final concentrations of 50, 25, 12.5, 6.25, 3.13, 1.56, and 0.78 µg/mL, and 99 µL of diluted microbes was loaded into each well of a polypropylene 96-well plate. […] The Morpheus HeatMap software (https://software.broadinstitute.org/morpheus/) was used to display MIC values on a color scale. All experiments were independently repeated three times.

[2] = Calcein dye leakage assay, POPC:LPS LUVs; conditions: POPC:LPS (12.5:1) LUVs, final peptide concentration 2 μg/mL; n = 3
Experimental: Large unilamellar vesicles (LUVs) containing POPC:LPS (12.5:1, mol/mol) and POPC:cholesterol (2:1, mol/mol) were prepared using the extrusion method and an Avanti small-volume extrusion apparatus(Avanti Polar Lipids). To prepare the vesicles, phospholipids were dissolved in a chloroform/methanol mixture (4:1, v/v), evaporated using nitrogen gas, and suspended in PBS buffer. The lipid suspensions underwent six to eight cycles of freezing and thawing before being extruded ten times through a […] pore size polycarbonate filter, followed by ten times through a […] filter. Calcein-filled LUVs were also prepared by loading calcein-containing buffer (70 mM calcein and 10 mM Tris at pH 7.4) into a Sephadex G-75 column loaded with iso-osmotic buffer (100 mM sodium chloride and 10 mM Tris) to remove unencapsulated calcein. The phospholipid content of the vesicles was determined by assessing inorganic phosphate using the ammonium ferrothiocyanate method described by John Charles Marshall Stewart.
Calcein leakage induced by peptides was measured using a Perkin-Elmer luminescence spectrofluorimeter with excitation and emission wavelengths of 496 and 515 nm, respectively. Calcein-entrapped LUVs were diluted to a concentration of 10 µM. The maximum degree of leakage was induced by 100 mg/mL Triton X-100.
The degree of leakage induced by various peptide concentrations was calculated using the formula: Leakage % = ((F − F0)/(Fr − F0)) × 100%, where F0 and Fr represent the initial fluorescence intensities observed without peptide and after adding 100 mg/mL Triton X-100, respectively.

HaCaT cells = experiment: Cell migration assay (in vitro wound healing assay); format: cell-based, human; conditions: 24 h
Experimental: Figure 3 Cell migration rate (In Vitro wound healing rate) of HaCaT cells induced by the designed peptides. […] (Bar: 200 μm) Results are presented as means ± standard deviations (SD); n = 3 (three independent experiments), ns = no significant differences; ** p < 0.01; *** p < 0.001; **** p < 0.0001 compared with PBS (Negative Control) and 100 ng/mL EGF (Positive Control).
For the Cell Migration Assay (in vitro wound healing assay), HaCaT cells (4 × 10^4 cells) were seeded on each side of an ibidi culture insert (ibidi, Germany) in DMEM medium supplemented with 10% fetal bovine serum. The inserts were placed into a 24-well plate and incubated at 37 °C and 5% CO2 overnight. After removing the inserts, 1 mL of serum-free DMEM medium supplemented with different concentrations of peptide was added. Medium without peptide and with 100 ng/mL EGF (epidermal growth factor) were used as negative and positive controls, respectively. The migration area was imaged at 0 and 24 h using an inverted fluorescent microscope (Zeiss/Observer Z1) at 10× magnification, and the area was quantified using ImageJ software(version 1.54g). The repairing rate was calculated using the formula: Repairing Rate = (Area0h-Area24h)/Area0h, where 0 h and 24 h represent the time points at which the images were taken.

[3] = system: human red blood cells (hRBCs); experiment: Hemolytic activity assay; format: cell-based; conditions: 1 h; for lysis of RBCs (hemolysis): 200 μM peptide, 100% = 1% Triton X-100
Experimental: Equal volumes of peptides and hRBCs were mixed and incubated at 37 °C for 1 h. The supernatant was collected from the samples and tested for absorbance at 565 nm. Zero hemolysis (blank) was defined in PBS buffer, while 100% hemolysis was defined in 1% Triton X-100.
Hemolytic activity was evaluated by testing the ability of the peptides to cause lysis of human red blood cells (hRBCs), both in the presence and absence of the antimicrobial peptide. Blood samples were collected from healthy volunteers and treated with ethylenediaminetetraacetic acid (EDTA) to prevent coagulation. The hRBCs were then washed three times with phosphate-buffered saline (PBS) and pelleted by centrifugation at 800× g for 10 min. Next, the hRBCs were diluted in PBS to a final concentration of 10%. Peptides were serially diluted in PBS ranging from 400 µM to 3.13 µM, and an equal volume of 10% hRBC was added to each dilution. After incubation at 37 °C for 1 h, the supernatant was collected by centrifugation at 800× g for 10 min, and the absorbance at 565 nm was measured. Negative controls (PBS blank) and positive controls (1% Triton X-100 in PBS) were also included. The percentage of hemolysis was calculated using the following formula: %hemolysis = [(Asample − APBS)/(ATritonX-100 − APBS)] × 100%, where A is the absorbance under the specified conditions.

[4] = Both Gram-positive and -negative bacteria, MH broth, MIC >50 µg/mL counted as 100 µg/mL
[5] = hRBCs in PBS, 37 °C, absorbance 565 nm
[6] = hRBCs in PBS, 37 °C, absorbance 565 nm, 108.7 µg/mL(200 µM) used when no detectable hemolytic activity

Substance | GM G−/+ (geometric mean of the MIC values) [1, 4] [µg/mL] | Therapeutic Index (TI) G−/+ [1] | calcein leakage [2] [%] | weakening of antibacterial efficacy (MIC) ([1]; 300 mM NaCl) | lysis of RBCs (hemolysis) [3, 5] | HC10 (concentration that induced 10% hemolysis of human red blood cells) [3, 6] [µg/mL] | other results
Ac-LAKKKKWRKWLKW-NH2 [Peptide W5K09] | 50.0 | 2.2 |  |  |  |  | 
Ac-WLKWLAKKKKWRK-NH2 [Peptide W5K05] | 20.3 | 5.4 | 69 |  |  |  | 
Ac-KKWRKWLKWLAKK-NH2 [W5K/A9W] | 4.1 | 7.3 | 82 | up to 4 fold | approximately 35% | 30.0 | wound healing effect (cell migration rate) (HaCaT cells; 4 µg/mL peptide): comparable wound healing effects; weakening of antibacterial efficacy (MIC) ([1]; MgCl2 rising above 0.5 mM): up to 2 fold
Ac-AKKKKWRKWLKWL-NH2 [Peptide W5K10] | 5.4 | 20.0 | 81 | up to 4 fold | less than 10% |  | wound healing effect (cell migration rate) (HaCaT cells; 4 µg/mL peptide): comparable wound healing effects
Ac-WRKWLKWLAKKKK-NH2 [Peptide W5K02] | 12.5 | 1.3 | 78 |  | ~34% | 16.7 | weakening of bactericidal efficacy (MIC) [1]: 4 fold; folds higher MIC values than W5KA9W ([1]; MH broth): 2–8 fold
Ac-LKWLAKKKKWRKW-NH2 [Peptide W5K06] | 57.4 | 1.9 |  |  |  |  | 
Ac-KWLAKKKKWRKWL-NH2 [Peptide W5K07] | 43.5 | 2.5 |  |  |  |  | 
Ac-RKWLKWLAKKKKW-NH2 [Peptide W5K03] | 33.0 | 3.3 |  |  |  |  | 
Ac-KKKWRKWLKWLAK-NH2 [Peptide W5K12] | 3.4 | 12.4 | 82 | up to 4 fold | ~30% | 41.7 | weakening of antibacterial efficacy (MIC) ([1]; MgCl2 rising above 0.5 mM): up to 2 fold
Ac-KWLKWLAKKKKWR-NH2 [Peptide W5K04] | 35.4 | 3.1 |  |  |  |  | 
Ac-KWRKWLKWLAKKK-NH2 [Peptide W5K01] | 15.4 | 4.6 | 74 |  | ~25% | 70.9 | weakening of bactericidal efficacy (MIC) [1]: 4 fold; folds higher MIC values than W5KA9W ([1]; MH broth): 2–4 fold
Ac-WLAKKKKWRKWLK-NH2 [Peptide W5K08] | 61.6 | 1.8 |  |  |  |  | 
Ac-KKKKWRKWLKWLA-NH2 [Peptide W5K11] |  | 21.2 | 85 | up to 3 fold | ~27% |  | wound healing effect (cell migration rate) (HaCaT cells; 4 µg/mL peptide): comparable wound healing effects; wound healing effect (cell migration rate) (HaCaT cells; serum-free DMEM, 0.25 µg/mL to 4 µg/mL, compared to the negative control): superior wound healing effect even at the lowest concentration of 0.25 µg/mL; GM G−/+ (geometric mean of the MIC values) [1]: 3.3 µg/mL; weakening of antibacterial efficacy (MIC) ([1]; MgCl2 rising above 0.5 mM): up to 2 fold; HC10 (concentration that induced 10% hemolysis of human red blood cells) ([3]; phosphate buffer): 71.0 µg/mL
